Measurements reported in patent publication US10219516B2, “Molecules having pesticidal utility, and intermediates, compositions, and processes, related thereto” (priority 2015, dated 2019).

Tests used:
Format in all cases: in vivo
[1] = tested on: Yellow Fever Mosquito (Aedes aegypti, AEDSAE); experiment: Bioassay on Yellow Fever Mosquito (YFM), 96-well plate larval assay; conditions: Yellow Fever Mosquito, 96-well plate larval assay
How it was run: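 Each well was scored for mortality after 3 days at room temperature under a non-evaporative lid. Test molecules came from DMSO masters (4000 ppm stock) diluted with water/acetone 90:10 and dispensed into six replicate plates, which were then infested with roughly 1-day-old larvae in liver-powder water.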

[2] = tested on: Beet Armyworm (Spodoptera exigua, LAPHEG); experiment: Bioassay on Beet Armyworm (BAW), 128-well diet tray assay; conditions: Beet Armyworm, 128-well diet tray assay, read-out: BAW rating
How it was run: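 In a 128-well format, eight wells per compound received a surface dose of 50 μg/cm^2 on artificial diet. After drying, each well got one to five second instar larvae, held at 25° C. with 14:10 photoperiod. Mortality percentages after five to seven days were averaged.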

[3] = tested on: Cabbage Looper (Trichoplusia ni, TRIPNI); experiment: Bioassay on Cabbage Looper (CL), 128-well diet tray assay; conditions: Trichoplusia ni; Cabbage Looper, 128-well diet tray assay; read-out: CL rating
How it was run: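 Diet-incorporation-free surface assay: 50 μg/cm^2 compound in acetone-water (90:10), dried on diet; 1–5 2nd-instar larvae/well; 8 wells; vented cover; 25° C., 14:10 L:D, 5–7 d; % mortality averaged over wells.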

SMILES	YFM rating [1]	pest or weed control at 50 µg/cm2 [2]	pest or weed control at 50 µg/cm2 [3]
C=CC(=O)Nc1ccc(NC(=O)c2cc(NC(=O)[C@H]3[C@H](c4cc(Cl)cc(Cl)c4)C3(Cl)Cl)ccc2Cl)cc1 (relative stereo) [PF26, trans-N-(4-Acrylamidophenyl)-2-chloro-5-(2,2-dichloro-3-(3,5-dichlorophenyl)cyclopropane-1-carboxamido)benzamide]	A (80-100)	50 to 100%	50 to 100%
CN(C(=O)CC(F)(F)F)c1ccc(NC(=O)c2cc(NC(=O)[C@H]3[C@H](c4cc(Cl)cc(Cl)c4)C3(Cl)Cl)ccc2Cl)cc1 (relative stereo) [PF30, trans-2-Chloro-5-(2,2-dichloro-3-(3,5-dichlorophenyl)cyclopropane-1-carboxamido)-N-(4-(3,3,3-trifluoro-N-methylpropanamido)phenyl)benzamide]	B (More than 0-Less than 80)	50 to 100%	50 to 100%
C[C@]1(c2ccc(OC(F)(F)F)cc2)[C@H](C(=O)Nc2ccc(Cl)c(C(=O)Nc3ccc(F)cc3)c2)C1(Cl)Cl (relative stereo) [PF32, trans-2-Chloro-5-(2,2-dichloro-3-methyl-3-(4-(trifluoromethoxy)phenyl)cyclopropanecarboxamido)-N-(4-fluorophenyl)benzamide]	A (80-100)	50 to 100%	50 to 100%
O=C(Nc1ccc(F)cc1)c1cc(NC(=O)[C@H]2[C@H](c3cc(Cl)cc(Br)c3)C2(Cl)Cl)ccc1Cl (relative stereo) [PF37, 5-(trans-3-(3-Bromo-5-chlorophenyl)-2,2-dichlorocyclopropane-1-carboxamido)-2-chloro-N-(4-fluorophenyl)benzamide]	B (More than 0-Less than 80)	50 to 100%	50 to 100%
CC(=O)Nc1ccc(NC(=O)c2cc(NC(=O)[C@H]3[C@H](c4cc(Cl)cc(Cl)c4)C3(Cl)Cl)ccc2Cl)c(F)c1 (relative stereo) [PF40, trans-N-(4-Acetamido-2-fluorophenyl)-2-chloro-5-(2,2-dichloro-3-(3,5-dichlorophenyl)cyclopropane-1-carboxamido)benzamide]	A (80-100)	50 to 100%	50 to 100%
CC(=O)Nc1ccc(NC(=O)c2cc(NC(=O)[C@H]3[C@H](c4cc(Cl)c(Cl)c(Cl)c4)C3(Cl)Cl)ccc2Cl)c(F)c1 (relative stereo) [PF42, trans-N-(4-Acetamido-2-fluorophenyl)-2-chloro-5-(2,2-dichloro-3-(3,4,5-trichlorophenyl)cyclopropane-1-carboxamido)benzamide]	A (80-100)	50 to 100%	50 to 100%
Cc1cc(NC(=O)c2cc(NC(=O)[C@H]3[C@H](c4cc(Cl)cc(Cl)c4)C3(Cl)Cl)ccc2Cl)ccc1F (relative stereo) [PF44, trans-2-Chloro-5-(2,2-dichloro-3-(3,5-dichlorophenyl)cyclopropane-1-carboxamido)-N-(4-fluoro-3-methylphenyl)benzamide]	A (80-100)	50 to 100%	50 to 100%
Cc1cc(F)ccc1NC(=O)c1cc(NC(=O)[C@H]2[C@H](c3ccc(Cl)c(Cl)c3)C2(Cl)Cl)ccc1Cl (relative stereo) [PF46, trans-2-Chloro-5-(2,2-dichloro-3-(3,4-dichlorophenyl)cyclopropane-1-carboxamido)-N-(4-fluoro-2-methylphenyl)benzamide]	A (80-100)	50 to 100%	50 to 100%
Cc1cc(F)ccc1NC(=O)c1cc(NC(=O)[C@H]2[C@H](c3ccc(F)c(Cl)c3)C2(Cl)Cl)ccc1Cl (relative stereo) [PF48, trans-2-Chloro-5-(2,2-dichloro-3-(3-chloro-4-fluorophenyl)cyclopropane-1-carboxamido)-N-(4-fluoro-2-methylphenyl)benzamide]	A (80-100)	50 to 100%	50 to 100%
